From US20080108655A1, “Drug composition and method for treating malaria and malignancy” (priority 2005, published 2008)

Key:
[1] = tested on: drug-resistant P. falciparum; assay: in vitro chemosensitization/resistance-reversal (C/RR) potency, strain not stated; assay type: cell-based
Description: (§1) All in vitro studies were 72 hour growth inhibition assays, starting with 0.2% parasitemia, 2% hematocrit under standard culture conditions in 96 well microplates. Growth was quantified using the fluorescence-based assay developed in our lab (Smilkstein et al; Antimicrobial Agents and Chemotherapy 2004;48:1803-1806). EC50 determined by non-linear regression curve fitting (sigmoidal dose-response, variable slope equation) using GraphPad Prism software. Isobolograms and EC50,75 and 90 estimates computed using CalcuSyn software (Biosoft, T. C. Chou).

[2] = human, in vivo; cited from earlier work
[3] = human, in vivo; cited from earlier work; remark: listed apart in the source
[4] = tested on: P. falciparum W2 (chloroquine-resistant); assay: 72 hour growth inhibition assay, fluorescence-based, strain W2; assay type: cell-based; conditions: fixed-ratio combinations, isobologram
Description: as §1
(§2) 2. […] In the following figures, fixed-ratio combinations of 2 drugs are made at the concentrations of each described in the figure legend (Fivelman, Adagu and Warhurst. Antimicrobial Agents and Chemotherapy 2004;48:4097-4102). Then, in quadruplicate, each of these combinations is diluted serially 2-fold, yielding one curve for each starting mixture. The data are expressed using the concentration of the antimalarial of interest on the X axis. […] In each starting combination, an increase of one drug is accompanied by a corresponding decrease in the other. As a result, overlapping curves indicate an additive relationship; a shift to the left, synergy; and a shift to the right, antagonism. • b. […]

CQ-resistant P. chabaudi = conditions: mice, drug alone
[5] = tested on: P. falciparum Dd2 (multidrug resistant)
Description: as §1
2. […] In the following figures, fixed-ratio combinations of 2 drugs are made at the concentrations of each described in the figure legend (Fivelman, Adagu and Warhurst. Antimicrobial Agents and Chemotherapy 2004;48:4097-4102). Then, in quadruplicate, each of these combinations is diluted serially 2-fold, yielding one curve for each starting mixture. The data are expressed using the concentration of the antimalarial of interest on the X axis. […] In each starting combination, an increase of one drug is accompanied by a corresponding decrease in the other. As a result, overlapping curves indicate an additive relationship; a shift to the left, synergy; and a shift to the right, antagonism. • b. One representative isobologram from each of the experiments is included to the right of the figure, showing lines predictive of EC50,75 and 90 if the combinations were additive in effect. Points falling to the lower left of the predictive lines indicate synergy; those on or near the line, additive effects.

[6] = tested on: P. falciparum D6 (CQ sensitive, mefloquine resistant); assay: 72 hour growth inhibition assay, fluorescence-based, strain D6; assay type: cell-based
Description: as §1, §2

[7] = tested on: drug-resistant P. falciparum; conditions: imipramine vs desipramine; amitriptyline vs nortriptyline; cited from earlier work

Compound: CN(C)CCC(c1ccc(Cl)cc1)c1ccccn1 (racemic) [chlorpheniramine]
- C/RR potency of the (+/−) and (+) forms compared ([1]; in vitro): equipotent
- typical serum concentrations in clinical use [2]: < 100 nM
- sedation as side effect [3]: consistently causes drowsiness

Compound: Cc1ccccc1C(OCCN(C)C)c1ccccc1 (racemic) [orphenadrine]
- interaction with CQ [4]: synergistic
- effect on sensitivity to quinine or mefloquine ([1]; strains resistant to those drugs): increases sensitivity to quinine or mefloquine
- parasitemia at completion of 4 treatment days (CQ-resistant P. chabaudi): decreased parasitemia
- interaction with mefloquine ([5]; Dd2, resistant to mefloquine): synergistic
- interaction with quinine ([5]; Dd2, resistant to quinine): synergistic
- interaction with CQ ([5]; Dd2, fixed-ratio combinations, isobologram): synergistic
- interaction with mefloquine ([6]; D6, resistant to mefloquine): synergistic
- interaction with CQ ([6]; D6, fixed-ratio combinations, isobologram): not against CQ sensitive D6
- sedation as side effect [3]: does not typically cause sedation

Compound: CN(C)CCC(c1ccc(Cl)cc1)c1ccccn1 (single isomer, unassigned; (-)) [(−)CP]
- C/RR activity ([1]; in vitro): active

Compound: CN(C)CCC(c1ccc(Br)cc1)c1ccccn1 (stereo not drawn) [BP, brompheniramine]
- C/RR potency of the (+/−) and (+) forms compared ([1]; in vitro): equipotent

Compound: CN(C)CCC=C1c2ccccc2CCc2ccccc21 [amitriptyline]
- resistance-reversal potency, dimethylamine vs monomethylamine pair [7]: no substantial difference

Compound: CNCCCN1c2ccccc2CCc2ccccc21 [desipramine]
- typical serum concentrations in clinical use [2]: 100 to 500 nM
- resistance-reversal potency, dimethylamine vs monomethylamine pair [7]: no substantial difference

Compound: CN(C)CCCN1c2ccccc2CCc2ccccc21 [imipramine]
- resistance-reversal potency, dimethylamine vs monomethylamine pair [7]: no substantial difference

Compound: CNCCC=C1c2ccccc2CCc2ccccc21 [nortriptyline]
- resistance-reversal potency, dimethylamine vs monomethylamine pair [7]: no substantial difference

Compound: CN(C)CCC(c1ccccc1)c1ccccn1 (stereo not drawn) [pheniramine]
- concentrations achieved in clinical use relative to BP or CP [2]: roughly 20 fold
- sedation as side effect [3]: shares sedation as a side effect
